Molecules are shown by their SMILES. Like-named read-outs stand apart in the source and are kept apart here. Bounds are passed on as bounds.

Experimental findings from patent US8097728B2, “Iminosugar compounds with antiflavirus activity” (Philadelphia Health & Education Corporation, priority 2007, dated 2012) are described below.

In one data set the test system is WNV. Nature of the data set: WNV yield reduction assay in BHK cells. The procedure:
Cells and viruses. BVDV-free MDBK cells (CCL 22) were obtained from the American Type Culture Collection and propagated in DMEM/F12 essential medium supplemented with penicillin (500 U/ml), streptomycin (500 U/ml), and 10% heat inactivated horse serum (Invitrogen). Cells were maintained in a humidified incubator at 37° C. with 5% CO2. BVDV (NADL strain) was obtained from Dr. Rubin Donis (Univ. of Nebraska-Lincoln). For infections, virus inoculum was added in complete medium and adsorbed for 1 h at 37° C., the inoculum was then removed, the cells washed once with medium and fresh medium containing compounds added. Virus stocks were prepared by freeze-thawing the infected cells and culture supernatant three times followed by centrifugation at 1,000 g for 5 min. Stock titers were determined, and stocks were aliquoted and stored at −80° C. WNV was obtained from a cDNA clone of a human 2002 isolate from Texas (Rossi et al., 2005); virus obtained from BHK cells electroporated with the in vitro synthesized RNA from this cDNA clone was passaged in Vero cells before use in antiviral assays. Dengue virus (DV) serotype 2 was a New Guinea C virus that had been passaged 28 times in suckling mouse brain, twice in Vero cells, and once in C6/36 mosquito cells.
WNV and DV Yield Reduction assay: Antiviral activity against WNV was evaluated in a yield reduction assay. Briefly, BHK cells were plated in 96-well plates at a concentration of 2.5×10^4 cells/well. 24 hours after plating, the cells were infected with WNV at an MOI of 0.05. After 1 hour the inoculum was aspirated and the cells re-fed with fresh DMEM containing dilutions of the test compounds. Plates were then incubated at 37° C. for 48 hours, the supernatant collected and the WNV produced titered. For virus titration, Vero cells were plated in 96-well plates at 8.0×10^3 cells/well and incubated overnight. The Vero cell monolayers were then infected for 1 hour with various dilutions of the WNV supernatant, overlaid with media containing 0.6% tragacanth (ICN, CA) and incubated at 37° C. for 24-30 hours. The culture media was then aspirated; the plate was rinsed, air-dried, and fixed with 50 ul/well acetone/methanol (50:50). Viral foci were detected for enumeration by immunostaining as described previously (Rossi et al., 2005). For antiviral testing against DV, DV serotype 2, drug incubations and titrations were performed essentially as described for WNV, except that the virus was harvested from drug-treated cultures 72 hrs after infection, and foci were stained using hybridoma culture fluid harvested from monoclonal antibody-producing hybridoma clone D1-4G2 (Gentry et al., 1982) following 3 days of incubation on Vero cells under the tragacanth overlay.
For this purpose, BHK cells were infected with WNV at an moi of 0.05, and incubated in either the absence or presence of various concentrations of N-butylcyclohexyl-DNJ (SP169) and N-propylcyclohexyl-DNJ (SP173). After three days, the amount of progeny virus produced was determined by plaque assays on indicator Vero cells.

A further data set concerns DV serotype 2. Nature of the data set: DV yield reduction assay in BHK cells. Format: cell-based, Dengue virus (DV) serotype 2. The procedure: In the DV infection assay, a serotype 2 DV was used to infect BHK cells in the presence or absence of testing compounds and viruses produced after 72 hours were titered in a manner similar to the WNV assay. In this experiment, N-butylcyclohexyl-DNJ (SP169), N-pentyl(1-hydroxylcyclohexyl)-DNJ (OSL-95II), […] and N-propylcyclohexyl-DNJ (SP173) were compared with NNDNJ (Wu et al., 2002) and castanospermine. […] All compounds had no toxicity at the highest concentrations used in this experiment (FIG. 5B, Table 1).

Data set [1] can be described thus: MTT compound toxicity assay on BHK cells. Format: cell-based. The note with it: hamster; WNV (BHK); MTT, 50% reduction relative to DMSO. The procedure: (§1) Compound toxicity assay. Compound cytotoxicity was assessed by using an MTT based toxicity assay kit (Sigma, St. Louis, Mo.) as described elsewhere (Gu et al., 2006). Briefly, cells cultured under conditions identical to those used in the viral assay were incubated with various concentrations of the compound for 72 hours. MTT was added to the media to a final concentration of 0.5 mg/ml and was incubated for 3 hours at 37 C. After the culture media was removed, formazan crystals was dissolved by adding 150 ul of solubilization solution (10% Triton X-100, 0.1 N HCl in anhydrous isopropanol) for 15-30 minutes. The absorbance of the dissolved formazan was measured spectrophotometrically at 570 nm with absorbance at 690 nm as background.
Background: Tetrazolium assays rely on reduction of a dye to a coloured formazan, in cell work by metabolically active cells.

A further data set concerns HBV. Nature of the data set: HBV antigen assay: LHBs and MHBs secreted by HepG2.2.15 cells, immunoblot. Format: cell-based, Hepatitis B virus. The note with it: 7 days. The procedure: MHBs and LHBs are HBV envelope proteins that are sensitive to glucosidase inhibition and inhibition of these important viral glycoproteins serves as a surrogate for HBV growth. […] To assess the activity of this compound in the context of viral replication, HepG2 2.2.15 cells were incubated with the indicated DNJ derived compound. HepG 2.2.15 cells secrete readily detectable amounts of MHBs and LHBs into the culture medium. After 7 days of incubation, the amount of HBV M and L in the culture medium was determined by western blot. […] The nature of the selective antiviral activity is not known, but may be due to cell specific activity since HBV is studied in human liver derived hepatoblastoma HepG2 cells and BVDV and WNV were studied in MDBK and BHK cells, respectively.
HBV antigen assay: Antiviral activity against HBV was determined using HepG2.2.15 cells, which contain a dimer of the HBV genome and express all viral gene products, including envelope glycoproteins (Sells, Chen, and Acs, 1987). Briefly, HepG2.2.15 cells were seeded in 24 well trays, and allowed to grow to confluence prior to addition of drug, as described previously (Simsek et al., 2005). After seven days of treatment, supernatants were harvested and assayed for the presence of the Large Hepatitis B (LHBs) and middle Hepatitis B (MHBs) glycoproteins by electrophoresis through 12% polyacrylamide gels and immunoblotting with a polyclonal antibody that recognizes the pre-S2 region of the LHBs and MHBs proteins (Research Diagnostics Inc., Flanders, N.J.) as described (Simsek et al., 2005). Quantitation was performed using AlphaEase software (Alphalnnotech).
(Immunoblotting shows a protein as a band on a membrane.)

The test system of the next data set is BVDV. Nature of the data set: BVDV single cycle virus yield reduction assay in MDBK cells. It counts as cell-based, Bovine Viral Diarrhea virus (NADL strain). The note with it: for antiviral activity against BVDV (in words): MDBK cells, virus yield reduction, FIG. 2C / 4C; for SI (Selective Index, CC50/IC50) / IC50: BVDV (MDBK); for IC50: concentration reducing plaque number by 50% relative to DMSO, read-out: IC50. The procedure:
BVDV antiviral and plaque assays. To evaluate antiviral activity against BVDV, a single cycle virus yield reduction assay was performed in the presence of various concentrations of the test compounds. Specifically, 2×10^5 MDBK cells/well were plated in 24 well plates. Twenty-four hours later, the cells were infected with BVDV at a multiplicity of infection (moi) of 0.5 PFU/cell in 100 ul complete media. After adsorption for 1 h at 37° C., the inoculum was removed, and cells were washed with media before media containing vehicle or various concentrations of each compound was added. At 22 hour post infection, both cell and media were collected and freeze-thawed three times before the virus was titered. For BVDV virus titer determination, 10^−2, 10^−3, and 10^−4 dilutions of virus were inoculated onto MDBK cells as described previously (Gu et al., 2000; Jordan et al., 2002). After absorption and washing the cells were overlaid with medium containing methylcellulose or soft agar and incubated at 37° C. for 3 days or until plaques were visible. Plaques were counted directly under the microscope or after staining with crystal violet in 70% methanol for 15 min.
(§2) The anti-viral activity of this family of compounds against BVDV was then determined by a single cycle viral yield reduction assay in Madin Darby Bovine Kidney (MDBK) cells where the compounds are incubated with cells for 20 hours during the period of infection. Yields of virus were then determined by plaque assay on new MDBK cell monolayers. Compound toxicity was measured by MTT assay and the CC50 determined as the concentration of compound producing 50% reduction in absorption readings. […] This is consistent with previous findings in which oxygenation and methoxylation of side chains emanating from the ring nitrogen were less toxic in tissue culture and in animals than straight chain alkylated DNJs (Mehta et al., 2002b).

A further data set concerns MDBK cells. In words: MTT compound toxicity assay on MDBK cells. Format: cell-based, Bovine. The conditions noted are these: 72 hours; for CC50: BVDV (MDBK), concentration reducing MTT values (570 nm) by 50% relative to DMSO. The procedure: as §1, §2
The subject of the next data set is BHK cells. Nature of the data set: MTT compound toxicity assay on BHK cells. Format: cell-based. The conditions noted are these: for CC50: WNV (BHK), MTT, 50% reduction relative to DMSO. The procedure: as §1
Data set [2] can be described thus: MTT compound toxicity assay on MDBK cells. It counts as cell-based, Bovine. The conditions noted are these: bovine, MDBK cells, MTT, text to FIG. 2B / 4B. The procedure: as §1, §2
Setting [3] is: WNV (BHK), plaque number reduced by 50% relative to DMSO, 48 hours.

By CC50 is commonly meant the concentration that lowers cell viability or growth by half. Lower therefore signals harm at low concentration. For the compound `O[C@H]1[C@H](O)[C@@H](O)CN2CC[C@H](O)[C@H]12` [CAST, Castanospermine, reference compound], the IC50 is more than 20 µM in the data set on WNV (West Nile virus, BHK, 48 h); 6 µM with DV serotype 2 (Dengue virus, BHK, 72 h); 6 µM in the data set on DV serotype 2 (Dengue virus, BHK, 72 h, read-out: IC50 against DV). The selectivity ratio at 48 h in the data set on WNV (hamster) is 5. Besides, the “antiviral activity against WNV (in words)” value with WNV (highest concentration tested (20 uM)) is listed as “no significant activity”. In the data set on DV serotype 2 (hamster, DV (BHK), read-out: SI (Selective Index, CC50/IC50)), the selectivity ratio at 72 h was more than 17. This compound also registered a CC50 at 72 h in data set [1] of more than 100 µM.
Turning to `Nc1ccn([C@@H]2CS[C@H](CO)O2)c(=O)n1` [Compound 3TC, reference compound], the “reduction of MHBs and LHBs in culture medium (in words)” value with HBV (3TC 1 ug/ml, FIG. 6B) is “little effect”.
Take `CCOCCCCCN1C[C@H](O)[C@@H](O)[C@H](O)[C@H]1CO` [Compound 6-08, 6′-oxaoctyl-DNJ]: in the data set on BVDV, the “antiviral activity against BVDV (in words)” value was “retained the best antiviral activity of the series”.
Take `CCCCCCCCCN1C[C@H](O)[C@@H](O)[C@H](O)[C@H]1CO` [NNDNJ, N-nonyl-DNJ, reference compound]: the “SI (Selective Index, CC50/IC50)” value in the data set with BVDV is more than 50; with WNV (WNV (BHK)), 5-25; in the data set with DV serotype 2 (DV (BHK)), 20-100. Moreover, the IC50 was less than 3 µM with BVDV; 4 µM with WNV (setting [3]); 1 µM in the data set with DV serotype 2 (text to FIG. 5A, BHK cells, DV serotype 2, 72 hours, read-out: IC50 against DV). Also, the CC50 in the data set on MDBK cells is 150 µM; with BHK cells, 20 to 100 µM.
Turning to `OC[C@@H]1[C@@H](O)[C@H](O)[C@@H](O)CN1CCCCCC1CCCCC1` [OSL-1, N-pentylcyclohexyl-DNJ], the “inhibition of secretion of viral glycoproteins MHBs and LHBs (in words)” value in the data set with HBV (50 uM, FIG. 6A) is given as “lacked antiviral activity in this assay”.
In the case of `OC[C@@H]1[C@@H](O)[C@H](O)[C@@H](O)CN1CCCCCCC1CCCCC1` [OSL-2, N-hexylcyclohexyl-DNJ], the “antiviral activity against BVDV (in words)” value in the data set on BVDV is “appeared to be inactive against BVDV”.
Take `OC[C@@H]1[C@@H](O)[C@H](O)[C@@H](O)CN1CCCCCCC1(O)CCCCC1` [OSL-3, N-hexyl(1-hydroxycyclohexyl)-1,5-dideoxy-1,5-imino-D-glucitol]: the CC50 at 72 h in data set [2] is more than 300 µM.
On to `OC[C@@H]1[C@@H](O)[C@H](O)[C@@H](O)CN1CCCCC1(O)CCCCC1` [OSL-12-31, N-butyl(1-hydroxycyclohexyl)-1,5-dideoxy-1,5-imino-D-glucitol], for which the CC50 at 72 h in data set [2] was more than 300 µM. Also, the “toxicity in MDBK cells (in words)” value in the data set with MDBK cells (MTT, FIG. 4B) is reported as “less toxic in MDBK cultures than SP169”.
Regarding `OC[C@@H]1[C@@H](O)[C@H](O)[C@@H](O)CN1CCCCC1=CCCCC1` [OSL-12-51, N-butyl(1-cyclohexenyl)-DNJ], in the data set with BVDV, the “antiviral activity against BVDV (in words)” value was “substantially less active against BVDV”.
For the compound `OC[C@@H]1[C@@H](O)[C@H](O)[C@@H](O)CN1CCCC1CCCCC1` [SP173, N-propylcyclohexyl-DNJ], the entries for the “SI (Selective Index, CC50/IC50)” value in the data set with BVDV, with WNV (WNV (BHK)) and in the data set on DV serotype 2 (DV (BHK)) were more than 30, more than 100 and more than 33, respectively. Further, the IC50 in the data set with BVDV was determined as 5 µM; in the data set with WNV (setting [3]) it was 1 µM; in the data set with WNV (read-out: concentration inhibiting 50% of the WNV progeny produced, text to FIG. 3B, BHK cells, moi 0.05), 5 µM; in the data set on DV serotype 2 (DV (BHK), serotype 2, 72 hrs, read-out: IC50), 3 µM. In addition, the “antiviral activity against WNV (in words)” value in the data set on WNV (BHK cells, moi 0.05, FIG. 3B / 4D) is reported as “comparable to NNDNJ in activity”. Also, the CC50 is more than 150 µM with MDBK cells and more than 100 µM with BHK cells. In the data set on BHK cells (BHK cells, measured in parallel to WNV assay, data not shown), the “concentration without any detectable cell toxicity (highest concentration tested)” value was determined as 100 µM.
